In US20070259926A1, “mGluR5 modulators III” (AstraZeneca AB, priority 2006, published 2007) one finds IC50 and Kp data, which are given here for two compounds.

Data set [1] addresses T1, human mGluR5d (Homo sapiens, UniProt P41594).
T1 construct: expressed in transfected cells
The data set can be described thus: FLIPR assay: functional assessment of mGluR5 antagonism (intracellular calcium mobilization). The class given is cell-based. Particulars: cells expressing human mGluR5d; read-out: FLIPR hmGluR5d. The source says: The properties of the compounds of the invention can be analyzed using standard assays for pharmacological activity. Examples of glutamate receptor assays are well known in the art as described in for example Aramori et al., Neuron 8:757 (1992), Tanabe et al., Neuron 8:169 (1992), Miller et al., J. Neuroscience 15:6103 (1995), Balazs, et al., J. Neurochemistry 69:151 (1997). The methodology described in these publications is incorporated herein by reference. Conveniently, the compounds of the invention can be studied by means of an assay (FLIPR) that measures the mobilization of intracellular calcium, [Ca^2+]i in cells expressing mGluR5 or another assay (IP3) that measures inositol phosphate turnover.
Cells expressing human mGluR5d as described in WO97/05252 are seeded at a density of 100,000 cells per well on collagen coated clear bottom 96-well plates with black sides and experiments are done 24 h following seeding. […] The fluorescence signal is sampled 50 times at 1 second intervals followed by 3 samples at 5 second intervals immediately after each of the two additions. Responses are measured as the difference between the peak height of the response to agonist, less the background fluorescence within the sample period. […]
Background: A change in cytosolic calcium serves as a functional read-out for many receptors and channels.

A short description of data set [2]: Determination of brain to plasma ratio in rat. The class given is in vivo. Particulars: brain and plasma, female Sprague Dawley rats, read-out: Brain/Plasma Ratio of compound in Rat. The procedure: Brain to plasma ratios are estimated in female Sprague Dawley rats. The compound is dissolved in water or another appropriate vehicle. For determination of brain to plasma ratio the compound is administrated as a subcutaneous, or an intravenous bolus injection, or an intravenous infusion, or an oral administration. At a predetermined time point after the administration a blood sample is taken with cardiac puncture. The rat is terminated by cutting the heart open, and the brain is immediately retained. The blood samples are collected in heparinized tubes and centrifuged within 30 minutes, in order to separate the plasma from the blood cells. The plasma is transferred to 96-well plates and stored at −20° C. until analysis. The brains are divided in half, and each half is placed in a pre-tarred tube and stored at −20° C. until analysis. Prior to the analysis, the brain samples are thawed and 3 ml/g brain tissue of distilled water is added to the tubes. The brain samples are sonicated in an ice bath until the samples are homogenized. Both brain and plasma samples are precipitated with acetonitrile. After centrifugation, the supernatant is diluted with 0.2% formic acid. […] After reconstitution of the residuals the samples are ready for injection onto the HPLC column.

Structures are written as SMILES.

T1 sequence (P41594 21-942 isoform P41594-3 limits assumed): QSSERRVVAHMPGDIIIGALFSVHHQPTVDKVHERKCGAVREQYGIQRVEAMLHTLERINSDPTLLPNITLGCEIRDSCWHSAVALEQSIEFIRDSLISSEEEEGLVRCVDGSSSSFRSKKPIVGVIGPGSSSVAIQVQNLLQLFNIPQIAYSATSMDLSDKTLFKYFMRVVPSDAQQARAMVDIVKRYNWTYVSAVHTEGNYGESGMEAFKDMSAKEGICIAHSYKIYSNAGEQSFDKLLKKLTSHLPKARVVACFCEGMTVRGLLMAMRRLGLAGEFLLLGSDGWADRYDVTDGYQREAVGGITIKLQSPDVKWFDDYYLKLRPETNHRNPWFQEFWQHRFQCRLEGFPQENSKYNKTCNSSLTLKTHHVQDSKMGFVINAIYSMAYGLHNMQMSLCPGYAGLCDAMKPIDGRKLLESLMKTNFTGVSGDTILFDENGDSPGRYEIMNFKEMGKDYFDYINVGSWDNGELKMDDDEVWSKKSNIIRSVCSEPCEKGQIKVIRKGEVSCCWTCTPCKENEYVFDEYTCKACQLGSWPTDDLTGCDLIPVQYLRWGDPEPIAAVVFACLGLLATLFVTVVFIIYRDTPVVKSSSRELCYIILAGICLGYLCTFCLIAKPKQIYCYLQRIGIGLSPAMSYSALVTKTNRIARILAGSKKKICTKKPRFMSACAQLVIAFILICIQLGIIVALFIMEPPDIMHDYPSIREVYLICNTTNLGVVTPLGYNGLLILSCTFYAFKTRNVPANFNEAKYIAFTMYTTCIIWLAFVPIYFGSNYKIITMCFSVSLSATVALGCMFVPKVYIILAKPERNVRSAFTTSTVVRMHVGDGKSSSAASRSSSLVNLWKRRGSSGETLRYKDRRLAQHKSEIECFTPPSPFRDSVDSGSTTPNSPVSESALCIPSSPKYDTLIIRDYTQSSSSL

On to `Cc1cc(-c2nnc(N3CCC[C@@H]3c3nnn(-c4cccc(Cl)c4)n3)n2C)ccn1` [Example 15.1, 4-(5-{(R)-2-[2-(3-Chloro-phenyl)-2H-tetrazol-5-yl]-pyrrolidin-1-yl}-4-methyl-4H-[1,2,4]triazol-3-yl)-2-methyl-pyridine], for which, in data set [1], the IC50 came to 11 nM. Also, in data set [2], the Kp was determined as 0.27.
Turning to `COc1cc(-c2nnc(N3CCC[C@@H]3c3nnn(-c4cccc(C#N)c4)n3)n2C)ccn1` [Example 15.3, 3-(5-{(R)-1-[5-(2-Methoxy-pyridin-4-yl)-4-methyl-4H-[1,2,4]triazol-3-yl]-pyrrolidin-2-yl}-tetrazol-2-yl)-benzonitrile], in data set [1], the IC50 was 50 nM. In addition, the Kp in data set [2] amounted to 0.13.
